Where a chain is given by its changes, count along the chain named. Counter-ions that a name gives are not always drawn. Like-named read-outs stand apart in the source and are kept apart here.

This is an account of results in patent US10035766B2, “Compositions for preventing and/or treating lysosomal storage disorders” (Amicus Therapeutics, Inc., priority 2009, dated 2018).

Assay [1] has as its target T1, lysosomal GCase (Homo sapiens, UniProt P04062).
T1 construct: fibroblasts established from a normal subject; endogenous in cells; host or cells: fibroblasts established from a normal subject
T1 sequence (P04062 40-536): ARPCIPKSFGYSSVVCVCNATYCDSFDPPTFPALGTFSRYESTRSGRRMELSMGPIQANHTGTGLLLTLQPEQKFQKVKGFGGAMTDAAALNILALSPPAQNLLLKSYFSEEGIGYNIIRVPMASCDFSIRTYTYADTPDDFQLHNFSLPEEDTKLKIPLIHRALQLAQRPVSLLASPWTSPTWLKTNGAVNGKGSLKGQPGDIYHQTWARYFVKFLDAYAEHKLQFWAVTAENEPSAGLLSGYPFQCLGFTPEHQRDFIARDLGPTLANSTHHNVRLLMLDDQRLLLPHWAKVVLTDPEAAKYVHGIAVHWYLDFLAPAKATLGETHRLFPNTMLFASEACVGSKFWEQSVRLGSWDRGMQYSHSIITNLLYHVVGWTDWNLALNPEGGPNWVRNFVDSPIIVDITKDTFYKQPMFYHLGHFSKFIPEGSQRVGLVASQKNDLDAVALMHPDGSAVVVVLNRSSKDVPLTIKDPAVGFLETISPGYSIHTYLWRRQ
As to the kind of experiment: In situ lysosomal GCase inhibition and washout in fibroblasts from a normal subject (PFBFDβGlu substrate). Format: cell-based. The conditions noted are these: for in situ washout: after 16-24 hours at IC90, single exponential fit of activity recovery over 8 hours; for IC50: fibroblasts, compound 16-24 hours, substrate 1 hour. As to the method: The effect of the novel compounds of the present invention on lysosomal GCase activity was assayed in situ using fibroblasts established from a normal subject. Cells seeded in 48-well plates were incubated with the indicated concentrations of compound for 16-24 hours. For the dose-response assays, cells were incubated with the in situ substrate 5-(pentafluorobenzoylamino)fluorescein di-β-D-glucopyranoside (PFBFDβGlu) for 1 hour and subsequently lysed to determine the extent of substrate hydrolysis in the presence of compound. […] Inhibition was determined as the ratio of activity in the presence of compound to that in the absence of compound. […] Cells were washed extensively and incubated in drug-free medium to allow net compound efflux from cells. Cells were then tested for lysosomal GCase activity at 2 hour intervals over a total period of 8 hours following compound removal. The increase in activity over time was fitted with a single exponential function to determine the compound's washout time.

Assay [2] has as its target T2, GCase (Homo sapiens, UniProt P04062).
T2 sequence (P04062 40-536): T1 sequence (P04062 40-536)
As to the kind of experiment: GCase activity enhancement (EC50, Emax) of Table 2B. Format: cell-based.

For assay [3], the target named is T3, recombinant human GCase (rhGCase; Cerezyme®) (Homo sapiens, UniProt P04062, R534H).
T3 construct: purchased Genzyme Corp
T3 sequence (P04062 40-536 R534H): T1 sequence (P04062 40-536) with R495H
As to the kind of experiment: In vitro enzyme inhibition assay (4-MU-β-D-Glc hydrolysis) for IC50 and Ki. In kind it is biochemical. The conditions noted are these: for Ki: Cheng-Prusoff from IC50. As to the method:
The binding affinity (defined here by Ki binding constant) of GCase for novel compounds of the present invention were empirically determined using enzyme inhibition assays. In brief, the enzyme inhibition assays used monitored the ability of a test compound to bind and prevent the hydrolysis of a fluorogenic substrate in a concentration-dependent manner. Specifically, the enzyme activity of recombinant human GCase (rhGCase; Cerezyme®, Genzyme Corp.) was measured using the 4-methylumbelliferyl-β-D-glucopyranoside (4-MU-β-D-Glc) fluorogenic substrate in the absence or in the presence of varying amounts of each test compound. […] The enzyme inhibition assays were performed at both pH 7.0 (endoplasmic reticulum pH) and at pH 5.2 (lysosomal pH) to gain insight into the binding affinity (i.e., potency) of compounds for GCase in the endoplasmic reticulum and lysososome.
Various concentrations of test compounds were prepared in buffer “M” consisting of 50 mM sodium phosphate buffer with 0.25% sodium taurocholate at pH 7.0 and pH 5.2. Enzyme (Cerezyme®, a recombinant form of the human enzyme β-glucocerebrosidase) was also diluted in the same buffer “M” at pH 7.0 and pH 5.2. […] Five microliters of diluted enzyme was added to 15 μl of the various inhibitor concentrations or buffer “M” alone and incubated at 37° C. for 1 hour with 50 μl of the substrate preparation to assess β-glucosidase activity at pH 7.0 and pH 5.2. […] Fluorescence was measured on a plate reader for 1 sec/well using 355 nm excitation and 460 nm emission.

Where [4] appears, read: pH 5.2 (lysosomal pH), read-out: Ki (μM) pH 5.2.
Setting [5] is: pH 5.2 (lysosomal pH), read-out: IC50 (μM) pH 5.2.
[6] abbreviates: pH 7.0 (endoplasmic reticulum pH), read-out: Ki (μM) pH 7.0.
Setting [7] is: pH 7.0 (endoplasmic reticulum pH), read-out: IC50 (μM) pH 7.0.

Take `CC(O)[C@H]1CNC[C@@H](O)[C@@H]1O` (single isomer, unassigned): the “inhibition of GCase activity” value in assay [1] is reported as “inhibited GCase activity”. In addition, the “GCase activity enhancement compared to reference compound IFG-tartrate” value in assay [2] (same maximum level as IFG-tartrate at much lower concentration) was “concentration-dependent increase in GCase activity”.
Take `C[C@H](F)[C@H]1CNC[C@@H](O)[C@@H]1O` [Compound 13, (3R,4R,5R)-5((S)-1-Fluoroethyl)piperdine 3,4-diol Hydrochloride]: the Ki worked out at 0.0498 ± 0.0015 µM in assay [3] (setting [4]) and 0.009 ± 0.0004 µM in assay [3] (setting [6]). Besides, the IC50 amounted to 0.0946 ± 0.0028 µM in assay [3] (setting [5]), 0.0171 ± 0.0008 µM in assay [3] (setting [7]) and 0.65 ± 0.172 µM in assay [1]. In addition, in assay [1], the “in situ washout” value worked out at 2.7 ± 0.12 h. The EC50 in assay [2] stood at 0.044 ± 0.005 µM. In assay [2], the Emax worked out at 92.8 ± 6.6%.
Turning to `C[C@@H](F)[C@H]1CNC[C@@H](O)[C@@H]1O` [Compound 14, (3R,4R,5R)-5((R)-(1-Fluoroethyl)piperdine 3,4-diol Hydrochloride], the Ki in assay [3] (setting [4]) turned out to be 0.016 ± 0.0007 µM; in assay [3] (setting [6]) it was 0.004 ± 0.0001 µM. Further, the values for the concentration for half-maximal inhibition (IC50) in assay [3] (setting [5]), in assay [3] (setting [7]) and in assay [1] were 0.038 ± 0.0016 µM, 0.007 ± 0.0003 µM and 0.061 ± 0.019 µM, respectively. For the same compound, the “in situ washout” value in assay [1] turned out to be 3.7 ± 0.63 h. Further, the concentration for a half-maximal effect (EC50) in assay [2] came to 0.026 ± 0.003 µM. Also, the maximum response (Emax) in assay [2] was determined as 89.7 ± 3.5%.
Turning to `O[C@@H]1[C@@H]([C@H](O)c2ccccc2)CNC[C@H]1O` [(3R,4R,5R)-5-((S)-hydroxy(phenyl)methyl)-piperidine-3,4-diol], the maximal effect (Emax) in assay [2] worked out at 72.1 ± 3.5%.
Take `CC(C)(O)[C@H]1CNC[C@@H](O)[C@@H]1O` [(3R,4R,5S)-5-(2-hydroxypropan-2-yl)piperidine-3,4-diol]: the maximum response (Emax) in assay [2] is 109 ± 3.6%.
`CC(O)C1CNCC(O)C1O` (single isomer, unassigned) [Compound 10]: in assay [1], the “in situ washout” value is 12 ± 1.65 h. The maximal effect (Emax) in assay [2] stood at 99.3 ± 4.9%.
On to `C[C@@H](O)[C@H]1CNC[C@@H](O)[C@@H]1O` [Compound 9, (3R,4R,5R)-5((R)-1-Hydroxyethyl)piperdine 3,4-diol], for which the Ki stood at 0.044 ± 0.0017 µM in assay [3] (setting [4]) and 0.01 ± 0.0004 µM in assay [3] (setting [6]). Further, the half-inhibitory concentration (IC50) in assay [3] (setting [5]) amounted to 0.107 ± 0.0041 µM; in assay [3] (setting [7]) it was 0.02 ± 0.0008 µM; in assay [1], 0.518 ± 0.022 µM. Moreover, the “in situ washout” value in assay [1] is 10.5 ± 1.75 h. The concentration for a half-maximal effect (EC50) in assay [2] was 0.49 ± 0.06 µM. Moreover, the “Emax (%)” value in assay [2] is listed as 83.7 ± 2.9%.

A word on the Ki: it is a dissociation constant, usually derived from enzyme kinetics or from competition with a known ligand. What is called IC50 is the point on the concentration scale where inhibition reaches its midpoint. What is called EC50 is the concentration at which the effect is half-maximal. Usually Emax stands for the greatest response seen or fitted, relative to the assay's reference.
